Assay results: article PMC3950855 (British Journal of Cancer, 2014)
“And” between values parts separate entries of the source, which are not always exact repeats. Identical values can stand only once.

Key:
[1] = Plasma pharmacokinetics by LC/PDA; settings: for Cmax: human, in vivo, im, Panobinostat Cmax (mean), 20 mg
[2] = tested on: GIST; settings: salvage treatment; ref Demetri et al, 2006, 2012; cited from earlier work
[3] = Phase I trial safety: adverse events; type: in vivo, human
[4] = tested on: histone H3 acetylation in PBMNC; test: Acetylation of histone H3 in PBMNC of study patients; type: in vivo, human; settings: dose level 1, three patients
[5] = tested on: PBMNC; type: cell-based, human; settings: ex vivo incubation for 8 h
[6] = tested on: GIST-T1 (exon 11-mutant) cells; test: GIST-T1 cells immunoblot; type: cell-based
[7] = tested on: CYP2D6; settings: ref Hamberg et al, 2011; Filppula et al, 2012; cited from earlier work
[8] = 20 mg thrice weekly; ref Fukutomi et al (2012); cited from earlier work
[9] = both dose levels + IM 400 mg, 12 patients
[10] = panobinostat + IM 400 mg, 12 patients
[11] = Pan 50 nm for 8 h, then withdrawal

Cc1ccc(NC(=O)c2ccc(CN3CCNCC3)cc2)cc1Nc1nccc(-c2cccnc2)n1 [desmethyl-IM, N-desmethyl-IM]
actual plasma levels of desmethyl-IM vs prediction ([1]; during combination with panobinostat): as predicted

CCN(CC)CCNC(=O)c1c(C)[nH]c(/C=C2\C(=O)Nc3ccc(F)cc32)c1C [sunitinib]
median time to progression [2]: ~6 months
objective remissions [2]: 7%

Cc1[nH]c2ccccc2c1CCNCc1ccc(/C=C/C(=O)NO)cc1 [panobinostat, Panobinostat]
Anaemia, % of patients [3, 9]: 42% and 41.7%
Anaemia, No. of patients Total [3, 9]: 5
Chills, % of patients [3, 9]: 16.7%
Chills, No. of patients Total [3, 9]: 2
Constipation, % of patients [3, 9]: 16.7%
Constipation, No. of patients Total [3, 9]: 2
Creatinine, % of patients [3, 9]: 58% and 58.3%
Creatinine, No. of patients Total [3, 9]: 7
Diarrhoea, % of patients [3, 9]: 42% and 41.7%
Diarrhoea, No. of patients Total [3, 9]: 5
Dizziness, % of patients [3, 9]: 25.0%
Dizziness, No. of patients Total [3, 9]: 3
Dry mouth, % of patients [3, 9]: 16.7%
Dry mouth, No. of patients Total [3, 9]: 2
Dry skin, % of patients [3, 9]: 16.7%
Dry skin, No. of patients Total [3, 9]: 2
Dysgeusia, % of patients [3, 9]: 16.7%
Dysgeusia, No. of patients Total [3, 9]: 2
Dyspepsia, % of patients [3, 9]: 25.0%
Dyspepsia, No. of patients Total [3, 9]: 3
Fatigue, % of patients [3, 9]: 67% and 66.7%
Fatigue, No. of patients Total [3, 9]: 8
Headache, % of patients [3, 9]: 16.7%
Headache, No. of patients Total [3, 9]: 2
Hypothyroidism, % of patients [3, 9]: 25.0%
Hypothyroidism, No. of patients Total [3, 9]: 3
Lymphopenia, % of patients [3, 9]: 16.7%
Lymphopenia, No. of patients Total [3, 9]: 2
Muscle spasms, % of patients [3, 9]: 25.0%
Muscle spasms, No. of patients Total [3, 9]: 3
Nausea, % of patients [3, 9]: 50%
Nausea, No. of patients Total [3, 9]: 6
Neutropenia, % of patients [3, 9]: 16.7%
Neutropenia, No. of patients Total [3, 9]: 2
Oedema, % of patients [3, 9]: 25.0%
Oedema, No. of patients Total [3, 9]: 3
Thrombocytopenia, % of patients [3, 9]: 91.7%
Thrombocytopenia, No. of patients Total [3, 9]: 11
Vomiting, % of patients [3, 9]: 33% and 33.3%
Vomiting, No. of patients Total [3, 9]: 4
Weight loss, % of patients [3, 9]: 25.0%
Weight loss, No. of patients Total [3, 9]: 3
MTD (dose level) ([3]; dose level 1 = panobinostat 20 mg + IM 400 mg): dose level 1
dose-limiting toxicity ([3]; dose level 2 (30 mg panobinostat and 400 mg IM)): severe thrombocytopenia
Anaemia, No. of patients Grade 2 ([3]; panobinostat 20 mg + IM 400 mg): 3
Anaemia, No. of patients Total ([3]; panobinostat 20 mg + IM 400 mg): 3
Chills, No. of patients Grade 1 ([3]; panobinostat 20 mg + IM 400 mg): 1
Chills, No. of patients Grade 2 ([3]; panobinostat 20 mg + IM 400 mg): 1
Chills, No. of patients Total ([3]; panobinostat 20 mg + IM 400 mg): 2
Constipation, No. of patients Grade 1 ([3]; panobinostat 20 mg + IM 400 mg): 1
Constipation, No. of patients Total ([3]; panobinostat 20 mg + IM 400 mg): 1
Creatinine, No. of patients Grade 1 ([3]; panobinostat 20 mg + IM 400 mg): 2
Creatinine, No. of patients Grade 2 ([3]; panobinostat 20 mg + IM 400 mg): 2
Creatinine, No. of patients Grade 3 ([3]; panobinostat 20 mg + IM 400 mg): 1
Creatinine, No. of patients Total ([3]; panobinostat 20 mg + IM 400 mg): 5
Diarrhoea, No. of patients Grade 1 ([3]; panobinostat 20 mg + IM 400 mg): 3
Diarrhoea, No. of patients Grade 2 ([3]; panobinostat 20 mg + IM 400 mg): 1
Diarrhoea, No. of patients Total ([3]; panobinostat 20 mg + IM 400 mg): 4
Dizziness, No. of patients Grade 1 ([3]; panobinostat 20 mg + IM 400 mg): 2
Dizziness, No. of patients Total ([3]; panobinostat 20 mg + IM 400 mg): 2
Dry mouth, No. of patients Grade 1 ([3]; panobinostat 20 mg + IM 400 mg): 2
Dry mouth, No. of patients Total ([3]; panobinostat 20 mg + IM 400 mg): 2
Dry skin, No. of patients Grade 1 ([3]; panobinostat 20 mg + IM 400 mg): 1
Dry skin, No. of patients Total ([3]; panobinostat 20 mg + IM 400 mg): 1
Dysgeusia, No. of patients Grade 1 ([3]; panobinostat 20 mg + IM 400 mg): 2
Dysgeusia, No. of patients Total ([3]; panobinostat 20 mg + IM 400 mg): 2
Dyspepsia, No. of patients Grade 1 ([3]; panobinostat 20 mg + IM 400 mg): 2
Dyspepsia, No. of patients Total ([3]; panobinostat 20 mg + IM 400 mg): 2
Fatigue, No. of patients Grade 1 ([3]; panobinostat 20 mg + IM 400 mg): 3
Fatigue, No. of patients Grade 2 ([3]; panobinostat 20 mg + IM 400 mg): 3
Fatigue, No. of patients Total ([3]; panobinostat 20 mg + IM 400 mg): 6
Headache, No. of patients Grade 1 ([3]; panobinostat 20 mg + IM 400 mg): 1
Headache, No. of patients Total ([3]; panobinostat 20 mg + IM 400 mg): 1
Hypothyroidism, No. of patients Grade 1 ([3]; panobinostat 20 mg + IM 400 mg): 3
Hypothyroidism, No. of patients Total ([3]; panobinostat 20 mg + IM 400 mg): 3
Lymphopenia, No. of patients Grade 3 ([3]; panobinostat 20 mg + IM 400 mg): 1
Lymphopenia, No. of patients Total ([3]; panobinostat 20 mg + IM 400 mg): 1
Muscle spasms, No. of patients Grade 1 ([3]; panobinostat 20 mg + IM 400 mg): 1
Muscle spasms, No. of patients Grade 2 ([3]; panobinostat 20 mg + IM 400 mg): 1
Muscle spasms, No. of patients Total ([3]; panobinostat 20 mg + IM 400 mg): 2
Nausea, No. of patients Grade 1 ([3]; panobinostat 20 mg + IM 400 mg): 1
Nausea, No. of patients Grade 2 ([3]; panobinostat 20 mg + IM 400 mg): 1
Nausea, No. of patients Total ([3]; panobinostat 20 mg + IM 400 mg): 2
Neutropenia, No. of patients Grade 4 ([3]; panobinostat 20 mg + IM 400 mg): 1
Neutropenia, No. of patients Total ([3]; panobinostat 20 mg + IM 400 mg): 1
Oedema, No. of patients Grade 1 ([3]; panobinostat 20 mg + IM 400 mg): 2
Oedema, No. of patients Total ([3]; panobinostat 20 mg + IM 400 mg): 2
Thrombocytopenia, No. of patients Grade 1 ([3]; panobinostat 20 mg + IM 400 mg): 3
Thrombocytopenia, No. of patients Grade 2 ([3]; panobinostat 20 mg + IM 400 mg): 1
Thrombocytopenia, No. of patients Grade 3 ([3]; panobinostat 20 mg + IM 400 mg): 1
Thrombocytopenia, No. of patients Grade 4 ([3]; panobinostat 20 mg + IM 400 mg): 1
Thrombocytopenia, No. of patients Total ([3]; panobinostat 20 mg + IM 400 mg): 6
Vomiting, No. of patients Grade 2 ([3]; panobinostat 20 mg + IM 400 mg): 1
Vomiting, No. of patients Total ([3]; panobinostat 20 mg + IM 400 mg): 1
Weight loss, No. of patients Grade 1 ([3]; panobinostat 20 mg + IM 400 mg): 1
Weight loss, No. of patients Grade 2 ([3]; panobinostat 20 mg + IM 400 mg): 1
Weight loss, No. of patients Total ([3]; panobinostat 20 mg + IM 400 mg): 2
Anaemia, No. of patients Grade 2 ([3]; panobinostat 30 mg + IM 400 mg): 2
Anaemia, No. of patients Total ([3]; panobinostat 30 mg + IM 400 mg): 2
Chills, No. of patients Total ([3]; panobinostat 30 mg + IM 400 mg): 0
Constipation, No. of patients Grade 1 ([3]; panobinostat 30 mg + IM 400 mg): 1
Constipation, No. of patients Total ([3]; panobinostat 30 mg + IM 400 mg): 1
Creatinine, No. of patients Grade 1 ([3]; panobinostat 30 mg + IM 400 mg): 1
Creatinine, No. of patients Grade 2 ([3]; panobinostat 30 mg + IM 400 mg): 1
Creatinine, No. of patients Total ([3]; panobinostat 30 mg + IM 400 mg): 2
Diarrhoea, No. of patients Grade 1 ([3]; panobinostat 30 mg + IM 400 mg): 1
Diarrhoea, No. of patients Total ([3]; panobinostat 30 mg + IM 400 mg): 1
Dizziness, No. of patients Grade 1 ([3]; panobinostat 30 mg + IM 400 mg): 1
Dizziness, No. of patients Total ([3]; panobinostat 30 mg + IM 400 mg): 1
Dry mouth, No. of patients Total ([3]; panobinostat 30 mg + IM 400 mg): 0
Dry skin, No. of patients Grade 1 ([3]; panobinostat 30 mg + IM 400 mg): 1
Dry skin, No. of patients Total ([3]; panobinostat 30 mg + IM 400 mg): 1
Dysgeusia, No. of patients Total ([3]; panobinostat 30 mg + IM 400 mg): 0
Dyspepsia, No. of patients Grade 1 ([3]; panobinostat 30 mg + IM 400 mg): 1
Dyspepsia, No. of patients Total ([3]; panobinostat 30 mg + IM 400 mg): 1
Fatigue, No. of patients Grade 2 ([3]; panobinostat 30 mg + IM 400 mg): 2
Fatigue, No. of patients Total ([3]; panobinostat 30 mg + IM 400 mg): 2
Headache, No. of patients Grade 2 ([3]; panobinostat 30 mg + IM 400 mg): 1
Headache, No. of patients Total ([3]; panobinostat 30 mg + IM 400 mg): 1
Hypothyroidism, No. of patients Total ([3]; panobinostat 30 mg + IM 400 mg): 0
Lymphopenia, No. of patients Grade 2 ([3]; panobinostat 30 mg + IM 400 mg): 1
Lymphopenia, No. of patients Total ([3]; panobinostat 30 mg + IM 400 mg): 1
Muscle spasms, No. of patients Grade 2 ([3]; panobinostat 30 mg + IM 400 mg): 1
Muscle spasms, No. of patients Total ([3]; panobinostat 30 mg + IM 400 mg): 1
Nausea, No. of patients Grade 1 ([3]; panobinostat 30 mg + IM 400 mg): 1
Nausea, No. of patients Grade 2 ([3]; panobinostat 30 mg + IM 400 mg): 2
Nausea, No. of patients Grade 3 ([3]; panobinostat 30 mg + IM 400 mg): 1
Nausea, No. of patients Total ([3]; panobinostat 30 mg + IM 400 mg): 4
Neutropenia, No. of patients Grade 2 ([3]; panobinostat 30 mg + IM 400 mg): 1
Neutropenia, No. of patients Total ([3]; panobinostat 30 mg + IM 400 mg): 1
Oedema, No. of patients Grade 1 ([3]; panobinostat 30 mg + IM 400 mg): 1
Oedema, No. of patients Total ([3]; panobinostat 30 mg + IM 400 mg): 1
Thrombocytopenia, No. of patients Grade 3 ([3]; panobinostat 30 mg + IM 400 mg): 3
Thrombocytopenia, No. of patients Grade 4 ([3]; panobinostat 30 mg + IM 400 mg): 2
Thrombocytopenia, No. of patients Total ([3]; panobinostat 30 mg + IM 400 mg): 5
Vomiting, No. of patients Grade 1 ([3]; panobinostat 30 mg + IM 400 mg): 2
Vomiting, No. of patients Grade 2 ([3]; panobinostat 30 mg + IM 400 mg): 1
Vomiting, No. of patients Total ([3]; panobinostat 30 mg + IM 400 mg): 3
Weight loss, No. of patients Grade 2 ([3]; panobinostat 30 mg + IM 400 mg): 1
Weight loss, No. of patients Total ([3]; panobinostat 30 mg + IM 400 mg): 1
Grade 3 and 4 toxicities clearly attributable to study treatments ([3]; panobinostat + IM 400 mg): thrombocytopenia, neutropenia and nausea
severe hepatotoxicity ([3]; panobinostat + IM 400 mg): did not occur
patients with at least one adverse event [3, 10]: All patients
treatment-related deaths [3, 10]: no treatment-related deaths
time H3 acetylation was maintained in PBMNCs [4]: 24 h
concentration at which H3 acetylation became detectable [5]: ≥ 5 ng/mL
effect of continuous panobinostat treatment for 32 h [6]: reactivation of KIT phosphorylation
persistence of H3 acetylation after removal of panobinostat [6, 11]: 8 h
time to complete disappearance of H3 acetylation after removal [6, 11]: ≤ 24 h
CYP2D6 inhibition [7]: weak inhibitor
Cmax plasma level, panobinostat monotherapy [8]: 10 ng /ml^−1
Cmax ([1]; D1, with IM 400 mg): 36.1 nM
Cmax ([1]; D8, with IM 400 mg): 47.5 nM
Cmax ([1]; D15, with IM 400 mg): 44.6 nM
